# Experimental data from US20150005506A1, “THERAPEUTIC AGENT FOR DIABETES” (Teijin Pharma Limited, priority 2012, published 2015).
# Key:
# Type in all cases: in vivo, C57BL/6J mice
# [1] = tested on: mice loaded with a high-fat diet; assay: Insulin tolerance test in mice loaded with high-fat diet; settings: 3 mg/kg/day in drinking water, 10 weeks
# Method: (§1) Male C57BL/6J mice (age of 8 weeks) were loaded with a high-fat diet, with the proportion of fat-derived calories over total calories (Fat Kcal %) of 60%. Herewith, insulin resistance, impaired glucose tolerance, and diabetes mellitus are developed. In a group of febuxostat treatment (Febuxostat group), febuxostat was dissolved in tap water at a dose of 3 mg/kg/day and was administered to the mice as daily drinking water at the same time of the initiation of loading with a high-fat diet. Mice in the Vehicle group were given tap water. Moreover, in the normal animal group, mice were reared with a regular diet and tap water in the same period as the Febuxostat group and the Vehicle group. Ten weeks after the start of the high-fat diet and the administration of febuxostat, an insulin tolerance test was carried out to assess random blood glucose levels and insulin resistance. More specifically, 1.5 U/kg of insulin was intraperitoneally administered to the mice and blood glucose levels were measured at 0 minute, 30 minutes, 60 minutes, 90 minutes, 120 minutes after the administration of insulin. Moreover, 12 weeks after the initiation of the high-fat diet and the administration of febuxostat, 0.5 g/kg of glucose was intraperitoneally administered to the mice starved for 4 hours to assess 2-hour blood glucose levels after glucose load. Blood glucose levels were measured at 120 minutes after the administration of glucose. Moreover, on the last day of the administration, blood sampling was carried out to measure blood uric acid levels.
# [2] = tested on: mice loaded with a high-fat diet; assay: Glucose tolerance test in mice loaded with high-fat diet (Example 2); settings: 3 mg/kg/day in drinking water, 12 weeks
# Method: Male C57BL/6J mice (8 week-old) were loaded with a high-fat diet with the proportion of fat-derived calories over the total calories (Fat Kcal %) of 60%. Herewith, insulin resistance, impaired glucose tolerance, and diabetes mellitus are developed. At the same time of the initiation of loading high-fat diet, febuxostat dissolved in tap water at 3 mg/kg/day was administered to mice as drinking water in the Febuxostat group and mice in the Vehicle group were reared by administration of tap water as drinking water. Twelve weeks after the loading of a high-fat diet and the administration of febuxostat, a glucose tolerance test was carried out to assess impaired glucose tolerance. More specifically, the mice were made to fast for 4 hours; thereafter 0.5 g/kg of glucose was intraperitoneally administered to the mice. And blood sampling was conducted at 0 minute, 15 minutes, 30 minutes, 60 minutes, 90 minutes, and 120 minutes after glucose load respectively to measure glucose levels.
# [3] = tested on: mice loaded with a high-fat diet; assay: Blood glucose levels 2 hours after glucose load in mice loaded with high-fat diet; settings: 0.5 g/kg glucose i.p. after 4 hours starvation, 3 mg/kg/day in drinking water, 12 weeks
# Method: as §1, with “Moreover, 12 weeks after the initiation of the high-fat diet and the administration of febuxostat, 0.5 g/kg of glucose was intraperitoneally administered to the mice starved for 4 hours to assess 2-hour blood glucose levels after glucose load.” left out, “Moreover, on the last day of the administration, blood sampling was carried out to measure blood uric acid levels.” left out
# [4] = tested on: mice loaded with a high-fat diet; assay: Blood uric acid levels in mice loaded with high-fat diet; settings: last day of administration, 3 mg/kg/day in drinking water
# Method: as §1, with “Moreover, 12 weeks after the initiation of the high-fat diet and the administration of febuxostat, 0.5 g/kg of glucose was intraperitoneally administered to the mice starved for 4 hours to assess 2-hour blood glucose levels after glucose load.” left out, “Moreover, on the last day of the administration, blood sampling was carried out to measure blood uric acid levels.” left out
# [5] = tested on: mice loaded with a high-fat diet; assay: Random blood glucose level in mice loaded with high-fat diet; settings: 3 mg/kg/day in drinking water, 10 weeks, mean ± standard deviation, n = 9 to 10
# Method: as §1, with “Moreover, 12 weeks after the initiation of the high-fat diet and the administration of febuxostat, 0.5 g/kg of glucose was intraperitoneally administered to the mice starved for 4 hours to assess 2-hour blood glucose levels after glucose load.” left out, “Moreover, on the last day of the administration, blood sampling was carried out to measure blood uric acid levels.” left out
structure (smiles),measurement,setting,value
"Cc1nc(-c2ccc(OCC(C)C)c(C#N)c2)sc1C(=O)O [Febuxostat, 2-(3-cyano-4-isobutyloxyphenyl)-4-methyl-5-thiazole carboxylic acid]",Ratio of blood glucose levels relative to the value before insulin administration,[1]; 30 min after 1.5 U/kg insulin i.p.,66 ± 4%
same,Ratio of blood glucose levels relative to the value before insulin administration,[1]; 60 min after 1.5 U/kg insulin i.p.,62 ± 3%
same,Ratio of blood glucose levels relative to the value before insulin administration,[1]; 90 min after 1.5 U/kg insulin i.p.,71 ± 4%
same,Ratio of blood glucose levels relative to the value before insulin administration,[1]; 120 min after 1.5 U/kg insulin i.p.,91 ± 5%
same,Blood glucose level AUC (0-2 hour),[1]; after 1.5 U/kg insulin i.p.,371 ± 17 mg·h/dL
same,Blood glucose levels,"[2]; 0 min after 0.5 g/kg glucose i.p., n = 5 to 6",214 ± 17 mg/dL
same,Blood glucose levels,[2]; 15 min after 0.5 g/kg glucose i.p.,368 ± 29 mg/dL
same,Blood glucose levels,[2]; 30 min after 0.5 g/kg glucose i.p.,378 ± 26 mg/dL
same,Blood glucose levels,[2]; 60 min after 0.5 g/kg glucose i.p.,349 ± 35 mg/dL
same,Blood glucose levels,[2]; 90 min after 0.5 g/kg glucose i.p.,323 ± 43 mg/dL
same,Blood glucose levels,[2]; 120 min after 0.5 g/kg glucose i.p.,279 ± 31 mg/dL
same,Blood glucose levels 2 hours after glucose load,[3],396 ± 18 mg/dL
same,Blood uric acid levels,[4],0.7 ± 0.1 mg/dL
same,Random blood glucose level,[5],244 ± 7 mg/dL
